Laboratory results from US4238473A, “Artificial oligosaccharide antigenic determinants” (priority 1975, dated 1980).

Tests used:
antisera raised to 13 = assay: Hapten inhibition of precipitation between 13 and antisera raised to 13; type: binding, rabbit
Experimental: (§1) This antigen was prepared from the hydrazide derivative of compound 2 using the acyl azide coupling method described in example XII. […] Proof of the hapten specific nature of the response comes from hapten specific inhibition of precipitation between 13 and antisera raised to 13.

[1] = system: antibodies raised to this conjugate (antigen 12); assay: Hapten inhibition of precipitation of anti-12 sera with (β-D-gal-O(CH2)8 CONH)23 -HSA; type: binding, rabbit; details: (β-D-gal-O(CH2)8 CONH)23 -HSA as the precipitating antigen; for IC50: read-out: concentration giving 50% inhibition of precipitation
[2] = system: antibodies raised to this conjugate (antigen 12); type: binding, rabbit; details: 50 μl of crude sera raised to antigen 12
Excerpt: (§2) For rabbits the immunization protocol was that described by Martineau^2 and for goats that of Marcus and Grollman^3. The course of the immunization was followed by quantitative precipitin tests on samples of blood withdrawn at various times. The procedures used were all standard to the field of immunology^4.

[3] = system: Rabbit antisera raised to Le^a -BSA antigens; assay: Immunodiffusion of rabbit antisera raised to Le^a -BSA antigens; type: binding
[4] = system: antiserum raised against [Le^a -O(CH2)8 CONH]30 -BSA; assay: Maximum precipitation of anti-[Le^a -O(CH2)8 CONH]30 -BSA antiserum against test antigen; type: binding, rabbit; details: as test antigen against antiserum raised to [Le^a -O(CH2)8 CONH]30 -BSA
Experimental: The above antiserum had been raised against the artificial Lewis-a antigen [Le^a -O(CH2)8 CONH]30 -BSA. The maximum precipitation against [Le^a -O(CH2)8 CONH]28 -HSA as test antigen was 277 μg of antibody per 50 μl of antiserum.

[5] = system: human blood group Lewis-(a+b-) red cells; assay: Agglutination of red cells by goat antisera to artificial Le^a antigen; type: cell-based; details: goat antisera after appropriate treatment
Excerpt: (§3) To further explore the extent of cross reactions between antibodies raised to the artificial Le^a antigens and human Lewis-a blood group substance and to obtain larger amounts of antisera, a goat was immunized with [Le^a -O(CH2)8 CONH]30 -BSA.

Lewis (a-) red cells = assay: as above; type: cell-based, human; details: goat antisera after appropriate treatment
Excerpt: as §3

[6] = system: human Lewis-a blood group substance; assay: Goat immunization, cross-reaction of antisera with natural substance; type: in vivo; details: goat immunized with the antigen
Excerpt: as §3

San Juan rabbits = details: six San Juan rabbits, antigen in Freund's complete adjuvant
Excerpt: as §2

rabbits = assay: Immunization of rabbits with 13, specificity of sera; type: in vivo, rabbit; details: rabbits immunized with 13
Experimental: as §1

[7] = at the concentration that methyl β-D-glcNAc was effective

## CO[C@@H]1O[C@H](CO)[C@@H](O)[C@H](O)[C@H]1O [methyl β-D-glucopyranoside]
Antisera raised to 13; [7]
  inhibition of precipitation: virtually no inhibition
[1]
  inhibition of precipitation: approximately no inhibition

## OC[C@H]1OC(O)[C@H](O)[C@@H](O)[C@H]1O (stereo partly drawn) [galactose]
[1]
  IC50: 6.6 mM

## (α-D-gal-O(CH2)8 CONH)17 -BSA
[2]
  maximum amount of antibody precipitated: 87 µg

## polylysine
[3]
  line of precipitation on immunodiffusion: No line of precipitation

## [Le^a -O(CH2)8 CONH]28 -HSA
[4]
  maximum precipitation: 277 μg of antibody per 50 μl of antiserum

## [Le^a -O(CH2)8 CONH]30 -BSA
[5]
  agglutination by the antisera: effectively agglutinated
Lewis (a-) red cells
  agglutination by the antisera: did not agglutinate
[6]
  cross-reaction of antisera with human Lewis-a blood group substance: showed the expected cross-reaction

## (β-D-gal-O(CH2)8 CONH)24 -BSA [antigen 12]
[2]
  maximum amount of antibody precipitated: 396 µg
San Juan rabbits
  Antibody levels upon completion of the schedule (average): 277 μg per 50 μl sera

## OC[C@H]1O[C@@H](O[C@H]2[C@H](O)[C@@H](O)C(O)O[C@@H]2CO)[C@H](O)[C@@H](O)[C@H]1O (stereo partly drawn) [lactose]
[1]
  IC50: 70 mM

## CO[C@@H]1O[C@H](CO)[C@H](O)[C@H](O)[C@H]1O [methyl β-D-galactopyranoside]
[1]
  IC50: 0.83 mM

## (β-D-glcNAc-O(CH2)8 CONH)25 -BSA [antigen 13]
rabbits
  specificity of sera from immunized rabbits: high specificity for antigens containing the β-D-glcNAc hapten

## dextran
[3]
  line of precipitation on immunodiffusion: No line of precipitation

## CO[C@H]1O[C@H](CO)[C@H](O)[C@H](O)[C@H]1O [methyl α-D-galactopyranoside]
[1]
  IC50: 33 mM

## CO[C@@H]1O[C@H](CO)[C@H](O)[C@H](O)[C@H]1NC(C)=O [methyl β-D-galNAc]
Antisera raised to 13; [7]
  inhibition of precipitation: virtually no inhibition

## CO[C@@H]1O[C@H](CO)[C@@H](O)[C@H](O)[C@H]1NC(C)=O [methyl β-D-glcNAc]
Antisera raised to 13; precipitation between 13 and antisera raised to 13
  inhibition of precipitation: 60-80%
